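48-hour exposure; five concentrations; linearly interpolated endpoints. GI50 marks 50% less growth.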 Calls of active or inactive are those of the source. Cut-off read from the data, not from the text of the source: active = GI50 up to about 1.1 µM and inactive = higher.
Columns and labels:
Assay in all cases: NCI anticancer screen, dose series, 48 h
U-251 = tested on: U-251
SF-295 = tested on: SF-295
OVCAR-3 = tested on: OVCAR-3
RXF 393 = tested on: RXF 393
BT-549 = tested on: BT-549
OVCAR-4 = tested on: OVCAR-4
UACC-62 = tested on: UACC-62
UACC-257 = tested on: UACC-257
MDA-N = tested on: MDA-N
RPMI-8226 = tested on: RPMI-8226
MOLT-4 = tested on: MOLT-4
NCI-H460 = tested on: NCI-H460
MDA-MB-231 = tested on: MDA-MB-231
HCT-15 = tested on: HCT-15
SNB-19 = tested on: SNB-19
LOX IMVI = tested on: LOX IMVI
SK-MEL-28 = tested on: SK-MEL-28
T47D = tested on: T47D
HCT-116 = tested on: HCT-116
HOP-92 = tested on: HOP-92

Compound | GI50 (U-251) | GI50 (SF-295) | GI50 (OVCAR-3) | GI50 (RXF 393) | GI50 (BT-549) | GI50 (OVCAR-4) | GI50 (UACC-62) | GI50 (UACC-257) | GI50 (MDA-N) | GI50 (RPMI-8226) | GI50 (MOLT-4) | GI50 (NCI-H460) | GI50 (MDA-MB-231) | GI50 (HCT-15) [µM] | GI50 (SNB-19) | GI50 (LOX IMVI) | GI50 (SK-MEL-28) | GI50 (T47D) | GI50 (HCT-116) | GI50 (HOP-92)
CN1C(=S)C(c2ccccc2)Sc2ccccc21 (stereo unspecified) | > 100 µM (inactive) | 17.4 µM (inactive) | 48.2 µM (inactive) | 50.2 µM (inactive) | 42.7 µM (inactive) | > 100 µM (inactive) | > 100 µM (inactive) | 30.8 µM (inactive) | 77.8 µM (inactive) | > 100 µM (inactive) | 7.29 µM (inactive) | 27.8 µM (inactive) | > 100 µM (inactive) | 52.1 | > 100 µM (inactive) | 77.1 µM (inactive) | > 100 µM (inactive) | 78.5 µM (inactive) | 38.8 µM (inactive) | 
CCCCn1c(C)c(C(=O)OCC)c2cc(OCc3ccc(C(=O)Nn4c(C)ccc4C)cc3)c(Br)cc21 | > 100 µM (inactive) | > 100 µM (inactive) | > 100 µM (inactive) |  | > 100 µM (inactive) | > 100 µM (inactive) | > 100 µM (inactive) | > 100 µM (inactive) | > 100 µM (inactive) | > 100 µM (inactive) | > 100 µM (inactive) | > 100 µM (inactive) |  | > 100 | > 100 µM (inactive) | > 100 µM (inactive) | > 100 µM (inactive) | > 100 µM (inactive) | > 100 µM (inactive) | > 100 µM (inactive)
COc1ccc(N2C(=O)CC(Cl)C2=O)cc1 (stereo unspecified) | > 100 µM (inactive) |  | 15.2 µM (inactive) | 20 µM (inactive) | > 100 µM (inactive) | 19.1 µM (inactive) | 20.2 µM (inactive) | 16.1 µM (inactive) |  | 13.5 µM (inactive) |  | > 100 µM (inactive) | 17.4 µM (inactive) | 17.5 | > 100 µM (inactive) | 23.3 µM (inactive) | 16.6 µM (inactive) | 18.9 µM (inactive) | 18.2 µM (inactive) | 27.5 µM (inactive)
COc1ccc2c(n1)Sc1nc3ccccc3nc1N2 | 19.4 µM (inactive) | 26.7 µM (inactive) | 32.4 µM (inactive) | 32.2 µM (inactive) | 41.6 µM (inactive) | 67.3 µM (inactive) | 7.16 µM (inactive) | > 100 µM (inactive) |  | > 100 µM (inactive) | 13.8 µM (inactive) | 63.1 µM (inactive) | 13.2 µM (inactive) | 24.9 | 30.3 µM (inactive) | 31.4 µM (inactive) | > 100 µM (inactive) | > 100 µM (inactive) | 33.7 µM (inactive) | 78.5 µM (inactive)
Cc1cccc2c(=O)c3cccc([C@H](C)C(=O)O)c3oc12 | > 100 µM (inactive) | > 100 µM (inactive) | > 100 µM (inactive) |  | > 100 µM (inactive) | > 100 µM (inactive) | > 100 µM (inactive) | > 100 µM (inactive) | > 100 µM (inactive) | > 100 µM (inactive) | > 100 µM (inactive) | > 100 µM (inactive) | > 100 µM (inactive) | > 100 | > 100 µM (inactive) | > 100 µM (inactive) | > 100 µM (inactive) | > 100 µM (inactive) | > 100 µM (inactive) | > 100 µM (inactive)
O=C(O)c1ccc(N/C(=C(/C(Cl)=C(Cl)Cl)[N+](=O)[O-])n2nnc3ccccc32)cc1 | > 100 µM (inactive) | > 100 µM (inactive) | > 100 µM (inactive) |  | > 100 µM (inactive) | > 100 µM (inactive) | > 100 µM (inactive) | > 100 µM (inactive) | > 100 µM (inactive) | > 100 µM (inactive) | > 100 µM (inactive) | > 100 µM (inactive) | > 100 µM (inactive) | > 100 | > 100 µM (inactive) |  | > 100 µM (inactive) | > 100 µM (inactive) | > 100 µM (inactive) | 
N#Cc1nc(-c2cccc(-c3nc(C#N)c(N)o3)n2)oc1N | > 100 µM (inactive) | > 100 µM (inactive) | > 100 µM (inactive) |  |  | > 100 µM (inactive) | > 100 µM (inactive) | > 100 µM (inactive) | > 100 µM (inactive) | > 100 µM (inactive) | > 100 µM (inactive) | > 100 µM (inactive) | > 100 µM (inactive) | > 100 | > 100 µM (inactive) | > 100 µM (inactive) | > 100 µM (inactive) | > 100 µM (inactive) | > 100 µM (inactive) | > 100 µM (inactive)
O=C(O)CCCCn1ccc(=O)[nH]c1=O | > 100 µM (inactive) | > 100 µM (inactive) | > 100 µM (inactive) | > 100 µM (inactive) | > 100 µM (inactive) | > 100 µM (inactive) | > 100 µM (inactive) | > 100 µM (inactive) | > 100 µM (inactive) | > 100 µM (inactive) | > 100 µM (inactive) | > 100 µM (inactive) | > 100 µM (inactive) | > 100 | > 100 µM (inactive) | > 100 µM (inactive) | > 100 µM (inactive) | > 100 µM (inactive) | > 100 µM (inactive) | 
Clc1nc2n(c1/C=C/c1cccs1)CCS2 | 28.1 µM (inactive) | 29.6 µM (inactive) | 23.5 µM (inactive) | 40.8 µM (inactive) | 26.6 µM (inactive) | 64 µM (inactive) | 37.3 µM (inactive) | 57.5 µM (inactive) | 36.5 µM (inactive) | 15.7 µM (inactive) | 11.3 µM (inactive) |  | 6.41 µM (inactive) | 37 | 43.6 µM (inactive) |  | 34.8 µM (inactive) | 17 µM (inactive) | 25.4 µM (inactive) | 
COC(=O)CSc1nc2[nH]c(SC)c(C(N)=O)c2c(=O)n1-c1ccccc1 |  | > 10 µM (inactive) |  | > 10 µM (inactive) |  | > 10 µM (inactive) | > 10 µM (inactive) | > 10 µM (inactive) | > 10 µM (inactive) | > 10 µM (inactive) | > 10 µM (inactive) |  | > 10 µM (inactive) | > 10 |  | > 10 µM (inactive) | > 10 µM (inactive) | > 10 µM (inactive) |  | > 10 µM (inactive)
COc1ccc(Nc2nc(NNC(=O)Cc3ccccc3)nc(NNC(=O)c3ccncc3)n2)cc1 | > 10 µM (inactive) | > 10 µM (inactive) | > 10 µM (inactive) |  | > 10 µM (inactive) | > 10 µM (inactive) | 1.95 µM (inactive) | > 10 µM (inactive) | > 10 µM (inactive) |  | > 10 µM (inactive) | > 10 µM (inactive) | > 10 µM (inactive) | > 10 | > 10 µM (inactive) | > 10 µM (inactive) | > 10 µM (inactive) | > 10 µM (inactive) | > 10 µM (inactive) | > 10 µM (inactive)
CCOC(OCC)C(CC)[Se]c1ccccc1[N+](=O)[O-] (stereo unspecified) | 2.51 µM (inactive) | 2.32 µM (inactive) | 2.45 µM (inactive) | 1.8 µM (inactive) |  | > 55.5 µM (inactive) | 2.44 µM (inactive) | 8.83 µM (inactive) | 0.352 µM (active) | 3.44 µM (inactive) | 2.9 µM (inactive) | 2.81 µM (inactive) | 9.2 µM (inactive) | 1.57 | 3.75 µM (inactive) | 5.33 µM (inactive) | 10.5 µM (inactive) | 9.06 µM (inactive) | 3.6 µM (inactive) | > 22.2 µM (inactive)
O=[N+]([O-])/C(Cl)=C(\NCCN/C(C(Cl)=C(Cl)Cl)=C(/Cl)[N+](=O)[O-])C(Cl)=C(Cl)Cl | 48.8 µM (inactive) | 39.7 µM (inactive) | 16.5 µM (inactive) |  | 69 µM (inactive) |  | 31.2 µM (inactive) |  | 82.2 µM (inactive) | 17.7 µM (inactive) | 22 µM (inactive) | 49.5 µM (inactive) | 52.1 µM (inactive) | 36.6 | 92.9 µM (inactive) | 18.8 µM (inactive) | 57.8 µM (inactive) | 51.2 µM (inactive) | 39.1 µM (inactive) | 17.9 µM (inactive)
CC(C)[C@H]1NC(=O)[C@H]2N=C(O[C@@H]2C)[C@@H]2CCCN2C(=O)[C@H](Cc2ccccc2)NC(=O)[C@@H]2COC(=N2)[C@@H](Cc2ccccc2)NC(=O)[C@@H]2COC1=N2 | > 100 µM (inactive) | > 100 µM (inactive) | > 100 µM (inactive) | > 100 µM (inactive) | > 100 µM (inactive) | > 100 µM (inactive) | > 100 µM (inactive) | > 100 µM (inactive) | > 100 µM (inactive) | > 100 µM (inactive) | > 100 µM (inactive) |  | > 100 µM (inactive) | > 100 | > 100 µM (inactive) | > 100 µM (inactive) | > 100 µM (inactive) | > 100 µM (inactive) | > 100 µM (inactive) | 
O=[N+]([O-])C(=C1NCCN1)/C(Cl)=C(/Cl)N1CCOCC1 | > 100 µM (inactive) | > 100 µM (inactive) | > 100 µM (inactive) |  | > 100 µM (inactive) | > 100 µM (inactive) | > 100 µM (inactive) | > 100 µM (inactive) | > 100 µM (inactive) | > 100 µM (inactive) | > 100 µM (inactive) | > 100 µM (inactive) | > 100 µM (inactive) | > 100 | > 100 µM (inactive) |  | > 100 µM (inactive) | > 100 µM (inactive) | > 100 µM (inactive) | 

— ChEMBL document CHEMBL1201862, “PubChem BioAssay data set” (2004)
